Assay results published in US20060069132A1, “Azolecarboxamide herbicides” (priority 2004, published 2006).

Assays:
barnyardgrass [1] = test: Test B pre-/postemergence herbicide test; assay type: in vivo, Echinochloa crus-galli
In short: (§1)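 Response was scored visually 13 to 15 days after treatment against untreated greenhouse controls, 0 meaning no effect and 100 complete control. Formulations (solvent mixture plus surfactant) went onto soil after planting, onto foliage of 1- to 4-leaf plants, and onto 2-leaf plants in a flooded paddy set including rice and barnyardgrass.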

Surinam grass = test: Test B pre-/postemergence herbicide test; assay type: in vivo, Urochloa decumbens
In short: (§2)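 Flooded paddy rice and barnyardgrass were treated at the 2-leaf stage; upland plantings received compound either on sown seed or on 1- to 4-leaf seedlings. All were kept 13–15 days in a greenhouse and scored visually, 0–100, relative to untreated plants.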

cocklebur = test: Test B pre-/postemergence herbicide test; assay type: in vivo, Xanthium strumarium
In short: as §1

corn = test: Test B pre-/postemergence herbicide test; assay type: in vivo, Zea mays
In short: as §2

large crabgrass = test: Test B pre-/postemergence herbicide test; assay type: in vivo, Digitaria sanguinalis
In short: as §2

giant foxtail = test: Test B pre-/postemergence herbicide test; assay type: in vivo, Setaria faberi
In short: as §2

lambsquarters = test: Test B pre-/postemergence herbicide test; assay type: in vivo, Chenopodium album
In short: as §2

morningglory = test: Test B pre-/postemergence herbicide test; assay type: in vivo, Ipomoea coccinea
In short: as §1

pigweed = test: Test B pre-/postemergence herbicide test; assay type: in vivo, Amaranthus retroflexus
In short: as §2

velvetleaf = test: Test B pre-/postemergence herbicide test; assay type: in vivo, Abutilon theophrasti
In short: as §2

wheat = test: Test B postemergence herbicide test; assay type: in vivo, Triticum aestivum; set-up: key to Wheat plant response rating: 0 = no effect, 100 = complete control
In short: (§3)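 Treated at 2-leaf (paddy) or 1–4-leaf, 2–18 cm (postemergence); greenhouse 13–15 d; visual score vs control, 0 none to 100 complete control; dash = not tested.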

wild oat = test: Test B postemergence herbicide test; assay type: in vivo, Avena fatua
In short: as §3

rice = test: Test B flooded paddy test; assay type: in vivo, Oryza sativa; conditions: 1000 g ai/ha, scale 0 to 100 (0 no effect, 100 complete control)
In short: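 After treating 2-leaf paddy plants or 2–18 cm postemergence plants (1 to 4 leaves) with formulated chemical, researchers kept them in a greenhouse for 13–15 days. Effects were judged visually versus controls: 0 indicates none, 100 total control.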

ducksalad = test: Test B flooded paddy test; assay type: in vivo, Heteranthera limosa; conditions: 1000 g ai/ha, scale 0 to 100 (0 no effect, 100 complete control)
In short: (§4)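 Visual control ratings, 0–100 versus untreated controls, taken after 13 to 15 days in the greenhouse. Blackgrass received a postemergence spray at the 1- to 4-leaf stage (2–18 cm); ducksalad, umbrella sedge and barnyardgrass were flooded-paddy treated at 2 leaves.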

barnyardgrass [2] = test: Test B flooded paddy test; assay type: in vivo, Echinochloa crus-galli; conditions: 1000 g ai/ha, scale 0 to 100 (0 no effect, 100 complete control)
In short: as §4

[3] = 125 g ai/ha, 0 is no effect, 100 is complete control, preemergence
[4] = 125 g ai/ha, visual rating, scale 0 (no effect) to 100 (complete control), postemergence
[5] = 500 g ai/ha, visual rating, 0 = no effect, 100 = complete control, preemergence
[6] = postemergence, 500 g ai/ha, scale 0 to 100, 0 is no effect, 100 is complete control
[7] = 125 g ai/ha; visual rating, scale 0 (no effect) to 100 (complete control); postemergence
[8] = postemergence, 500 g ai/ha; scale 0 to 100, 0 is no effect, 100 is complete control
[9] = 500 g ai/ha, visual rating 0-100, 0 no effect, 100 complete control, preemergence
[10] = postemergence, 125 g ai/ha, visual rating, scale 0 (no effect) to 100 (complete control)
[11] = postemergence, 500 g ai/ha, visual rating, scale 0 (no effect) to 100 (complete control)
[12] = preemergence, 125 g ai/ha, 0 to 100 scale, 0 is no effect, 100 is complete control
[13] = postemergence, 125 g ai/ha; visual rating, scale 0 (no effect) to 100 (complete control)
[14] = postemergence, 500 g ai/ha; visual rating, scale 0 (no effect) to 100 (complete control)
[15] = Postemergence, 500 g ai/ha, visual rating after 13 to 15 days, scale 0 (no effect) to 100 (complete control)
[16] = Preemergence, 500 g ai/ha, scale 0 to 100
[17] = Postemergence, 500 g ai/ha; visual rating after 13 to 15 days, scale 0 (no effect) to 100 (complete control)

Compound: C#CCNC(=O)c1cccc(NC(=O)c2sc(C(C)(C)C)nc2CC)c1 [Compound 319]
- Plant response rating (0 to 100 scale), Barnyardgrass (barnyardgrass [1]; [3]): 50
- Barnyardgrass plant response rating (barnyardgrass [1]; [4]): 0
- Plant response rating, Barnyardgrass (barnyardgrass [1]; [5]): 80
- Barnyardgrass plant response rating (barnyardgrass [1]; [6]): 20
- Plant response rating (0 to 100 scale), Surinam Grass (Surinam grass; [3]): 20
- Surinam Grass plant response rating (Surinam grass; [4]): 10
- Plant response rating, Surinam Grass (Surinam grass; [5]): 60
- Surinam Grass plant response rating (Surinam grass; [6]): 20
- Plant response rating (0 to 100 scale), Cocklebur (cocklebur; [3]): 0
- Cocklebur plant response rating (cocklebur; [4]): 20
- Plant response rating, Cocklebur (cocklebur; [5]): 10
- Cocklebur plant response rating (cocklebur; [6]): 40
- Plant response rating (0 to 100 scale), Corn (corn; [3]): 10
- Corn plant response rating (corn; [4]): 20
- Plant response rating, Corn (corn; [5]): 40
- Corn plant response rating (corn; [6]): 20
- Plant response rating (0 to 100 scale), Crabgrass, Large (large crabgrass; [3]): 50
- Crabgrass, Large plant response rating (large crabgrass; [4]): 20
- Plant response rating, Crabgrass, Large (large crabgrass; [5]): 100
- Crabgrass, Large plant response rating (large crabgrass; [6]): 20
- Plant response rating (0 to 100 scale), Foxtail, Giant (giant foxtail; [3]): 20
- Foxtail, Giant plant response rating (giant foxtail; [4]): 20
- Plant response rating, Foxtail, Giant (giant foxtail; [5]): 50
- Foxtail, Giant plant response rating (giant foxtail; [6]): 30
- Plant response rating (0 to 100 scale), Lambsquarters (lambsquarters; [3]): 20
- Lambsquarters plant response rating (lambsquarters; [4]): 50
- Plant response rating, Lambsquarters (lambsquarters; [5]): 100
- Lambsquarters plant response rating (lambsquarters; [6]): 60
- Plant response rating (0 to 100 scale), Morningglory (morningglory; [3]): 10
- Morningglory plant response rating (morningglory; [4]): 10
- Plant response rating, Morningglory (morningglory; [5]): 20
- Morningglory plant response rating (morningglory; [6]): 20
- Plant response rating (0 to 100 scale), Pigweed (pigweed; [3]): 60
- Pigweed plant response rating (pigweed; [4]): 30
- Plant response rating, Pigweed (pigweed; [5]): 100
- Pigweed plant response rating (pigweed; [6]): 40
- Plant response rating (0 to 100 scale), Velvetleaf (velvetleaf; [3]): 0
- Velvetleaf plant response rating (velvetleaf; [4]): 10
- Plant response rating, Velvetleaf (velvetleaf; [5]): 30
- Velvetleaf plant response rating (velvetleaf; [6]): 20
- Wheat plant response rating (wheat; [7]): 10
- Wheat plant response rating (wheat; [8]): 30
- Oat, Wild plant response rating (wild oat; [7]): 20
- Oat, Wild plant response rating (wild oat; [8]): 20
- Rice plant response rating (rice): 70
- Ducksalad plant response rating (ducksalad): 90
- Barnyardgrass plant response rating (barnyardgrass [2]): 10

Compound: CC(=O)c1cccc(NC(=O)c2cc(C(C)(C)C)nn2CCF)c1 [Compound 128]
- Plant response rating, Barnyardgrass (barnyardgrass [1]; [9]): 90
- Barnyardgrass plant response rating (barnyardgrass [1]; [10]): 20
- Barnyardgrass plant response rating (barnyardgrass [1]; [11]): 30
- Plant response rating, Barnyardgrass (barnyardgrass [1]; [12]): 80
- Plant response rating, Surinam Grass (Surinam grass; [9]): 60
- Surinam Grass plant response rating (Surinam grass; [10]): 10
- Surinam Grass plant response rating (Surinam grass; [11]): 20
- Plant response rating, Surinam Grass (Surinam grass; [12]): 40
- Plant response rating, Cocklebur (cocklebur; [9]): 20
- Cocklebur plant response rating (cocklebur; [10]): 90
- Cocklebur plant response rating (cocklebur; [11]): 100
- Plant response rating, Cocklebur (cocklebur; [12]): 20
- Plant response rating, Corn (corn; [9]): 20
- Plant response rating, Corn (corn; [12]): 0
- Plant response rating, Crabgrass, Large (large crabgrass; [9]): 100
- Crabgrass, Large plant response rating (large crabgrass; [10]): 20
- Crabgrass, Large plant response rating (large crabgrass; [11]): 20
- Plant response rating, Crabgrass, Large (large crabgrass; [12]): 90
- Plant response rating, Foxtail, Giant (giant foxtail; [9]): 60
- Foxtail, Giant plant response rating (giant foxtail; [10]): 20
- Foxtail, Giant plant response rating (giant foxtail; [11]): 20
- Plant response rating, Foxtail, Giant (giant foxtail; [12]): 40
- Plant response rating, Lambsquarters (lambsquarters; [9]): 70
- Lambsquarters plant response rating (lambsquarters; [10]): 0
- Lambsquarters plant response rating (lambsquarters; [11]): 60
- Plant response rating, Lambsquarters (lambsquarters; [12]): 0
- Plant response rating, Morningglory (morningglory; [9]): 30
- Plant response rating, Morningglory (morningglory; [12]): 20
- Plant response rating, Pigweed (pigweed; [9]): 80
- Pigweed plant response rating (pigweed; [10]): 20
- Pigweed plant response rating (pigweed; [11]): 60
- Plant response rating, Pigweed (pigweed; [12]): 50
- Plant response rating, Velvetleaf (velvetleaf; [9]): 80
- Velvetleaf plant response rating (velvetleaf; [10]): 50
- Velvetleaf plant response rating (velvetleaf; [11]): 60
- Plant response rating, Velvetleaf (velvetleaf; [12]): 70
- Wheat plant response rating (wheat; [13]): 0
- Wheat plant response rating (wheat; [14]): 20
- Oat, Wild plant response rating (wild oat; [13]): 10
- Oat, Wild plant response rating (wild oat; [14]): 10
- Rice plant response rating (rice; visual rating, 13 to 15 days): 60
- Ducksalad plant response rating (ducksalad; visual rating, 13 to 15 days): 90
- Barnyardgrass plant response rating (barnyardgrass [2]; visual rating, 13 to 15 days): 70

Compound: CCn1nc(C(C)(C)C)cc1C(=O)Nc1cccc(C(=O)NC(C)C)c1 [Compound 51]
- Plant response rating, Barnyardgrass (barnyardgrass [1]; [15]): 80
- Barnyardgrass plant response rating (barnyardgrass [1]; [16]): 100
- Barnyardgrass plant response rating (barnyardgrass [1]; [10]): 60
- Plant response rating, Barnyardgrass (barnyardgrass [1]; [12]): 80
- Plant response rating, Surinam Grass (Surinam grass; [15]): 20
- Surinam Grass plant response rating (Surinam grass; [16]): 80
- Surinam Grass plant response rating (Surinam grass; [10]): 10
- Plant response rating, Surinam Grass (Surinam grass; [12]): 30
- Plant response rating, Cocklebur (cocklebur; [15]): 80
- Cocklebur plant response rating (cocklebur; [16]): 50
- Cocklebur plant response rating (cocklebur; [10]): 70
- Plant response rating, Cocklebur (cocklebur; [12]): 0
- Plant response rating, Corn (corn; [15]): 0
- Corn plant response rating (corn; [16]): 50
- Corn plant response rating (corn; [10]): 0
- Plant response rating, Corn (corn; [12]): 0
- Plant response rating, Crabgrass, Large (large crabgrass; [15]): 50
- Crabgrass, Large plant response rating (large crabgrass; [16]): 100
- Crabgrass, Large plant response rating (large crabgrass; [10]): 20
- Plant response rating, Crabgrass, Large (large crabgrass; [12]): 90
- Plant response rating, Foxtail, Giant (giant foxtail; [15]): 0
- Foxtail, Giant plant response rating (giant foxtail; [16]): 100
- Foxtail, Giant plant response rating (giant foxtail; [10]): 0
- Plant response rating, Foxtail, Giant (giant foxtail; [12]): 100
- Plant response rating, Lambsquarters (lambsquarters; [15]): 90
- Lambsquarters plant response rating (lambsquarters; [16]): 100
- Lambsquarters plant response rating (lambsquarters; [10]): 80
- Plant response rating, Lambsquarters (lambsquarters; [12]): 100
- Plant response rating, Morningglory (morningglory; [15]): 0
- Morningglory plant response rating (morningglory; [16]): 0
- Morningglory plant response rating (morningglory; [10]): 0
- Plant response rating, Morningglory (morningglory; [12]): 0
- Plant response rating, Pigweed (pigweed; [15]): 100
- Pigweed plant response rating (pigweed; [16]): 100
- Pigweed plant response rating (pigweed; [10]): 80
- Plant response rating, Pigweed (pigweed; [12]): 100
- Plant response rating, Velvetleaf (velvetleaf; [15]): 70
- Velvetleaf plant response rating (velvetleaf; [16]): 100
- Velvetleaf plant response rating (velvetleaf; [10]): 60
- Plant response rating, Velvetleaf (velvetleaf; [12]): 50
- Plant response rating, Wheat (wheat; [17]): 20
- Wheat plant response rating (wheat; [13]): 20
- Plant response rating, Oat, Wild (wild oat; [17]): 10
- Oat, Wild plant response rating (wild oat; [13]): 0
- Rice plant response rating (rice; visual rating, 13 to 15 days): 70
- Ducksalad plant response rating (ducksalad; visual rating, 13 to 15 days): 80
- Barnyardgrass plant response rating (barnyardgrass [2]; visual rating, 13 to 15 days): 90
